Experimental data taken from the NIST ThermoML archive (doi:10.1021/je7005727).
± gives the expanded uncertainty stated by the source.

Settings: 101.33 kPa, Liquid; for speed of sound: Sing-around technique in a fixed-path interferometer

SMILES | mass density (293.15 K) [kg/m3] | speed of sound (293.15 K) [m/s] | mass density (298.15 K) [kg/m3] | speed of sound (298.15 K) [m/s] | mass density (303.15 K) [kg/m3] | speed of sound (303.15 K) [m/s]
CCCCCO [pentan-1-ol] | 814.738 ± 0.76 | 1292.5 ± 1.2 | 811.067 ± 0.77 | 1275.1 ± 1.2 | 807.366 ± 0.78 | 1258.5 ± 1.2
CCCCCCO [hexan-1-ol] | – | 1320.3 ± 1.2 | – | 1303 ± 1.2 | – | 1286.3 ± 1.2
CCCCO [butan-1-ol] | 809.644 ± 0.46 | 1256.7 ± 0.82 | 805.842 ± 0.47 | 1239.2 ± 0.81 | 801.995 ± 0.47 | 1222.7 ± 0.81
